Experimental data taken from the supplement of paper PMC6470124.

Columns and labels:
[1] = absolute recovery over vacuum-assisted evaporative concentration; higher = better recovery; settings: enrichment method: VEC
How it was run: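 Standards were spiked into water samples before concentration, after concentration or not at all; volumes were 6 mL influent, 15 mL effluent and 60 mL surface or nanopure water. Spiking levels were 200 ng/L for nanopure and surface water and 1000 ng/L for wastewater, adjusted by class and compound. After evaporation at 55 °C and 20 mbar to about 0.3 mL, samples were brought to 0.4 mL, centrifuged, given internal standards and analysed by LC-HRMS/MS. Absolute recovery equals (response ratio pre − unspiked)/(post − unspiked) × 100, based on averages of ≥ 2 replicates.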

[2] = LC retention time (Atlantis T3, 5-95% MeOH gradient, 0.1% formic acid); higher = more retained / less polar
How it was run: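 Retention times were recorded for reference standards (purity ≥ 95%) on a polar reversed-phase C18 column (Atlantis T3, 3 × 150 mm, 3 μm) at 0.3 mL/min. Elution used water and methanol, each with 0.1% formic acid, in a gradient from 5 to 95% methanol over 17.5 min. Detection was by high-resolution tandem mass spectrometry on a QExactive Plus, with positive and negative electrospray in separate runs. Peaks were found and integrated in TraceFinder (5 ppm tolerance, at least three points per peak) and then checked by hand.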

[3] = absolute recovery over mixed-bed multilayer solid-phase extraction; higher = better recovery; settings: enrichment method: SPE
How it was run: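 Wastewater (100–250 mL, adjusted to pH 6.5 and glass-fibre filtered) or 1000 mL unfiltered nanopure water was loaded on a three-layer mixed-bed cartridge and eluted with basic then acidic ethyl acetate/methanol. Standards were spiked before extraction, after it, or not at all, at 200 ng/L (water) or 1000 ng/L (wastewater), with class exceptions. Internal standards were added afterwards, then LC-HRMS/MS ran in both ionisation modes. Absolute recovery compares background-corrected response ratios of pre- versus post-spiked samples, averaged over at least two replicates.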

Compound | absolute recovery ([1]; wastewater effluent) | absolute recovery ([1]; wastewater influent) | LC retention time [2] | absolute recovery ([3]; nanopure water) | absolute recovery ([3]; surface water) | absolute recovery ([3]; wastewater effluent) | absolute recovery ([3]; wastewater influent)
CC=C1[NH+](C)C(C)CC1(c1ccccc1)c1ccccc1 (configuration not stated) [EDDP (=2-Ethylidene-1-5-dimethyl-3-3-diphenylpyrrolidin)] | 95% | 82.3% | 14.4 min | 33.8% | 65% | 60.2% | 75.8%
CC(C)(C)Nc1nc(N)nc(O)n1 [Terbutylazin-desethyl-2-hydroxy] | 113% | 85.2% | 9.56 min | 89.9% | 102% | 96.7% | 94.1%
CNC(=O)Nc1ccc(C(C)C)cc1 [Isoproturon-monodemethyl (=1-(4-Isoprophenyl)-3-methylurea)] | 105% | 101% | 18.3 min | 96.3% | 93.3% | 94.1% | 98.9%
COc1c(C)c2c(c(O)c1CC=C(C)CCC(=O)[O-])C(=O)OC2 [Mycophenolic-Acid] | 103% |  | 18.9 min | 99.6% | 97.1% | 100% | 
CC(C)(C(=O)[O-])c1ccc(C(O)CCC[NH+]2CCC(C(O)(c3ccccc3)c3ccccc3)CC2)cc1 (configuration not stated) [Fexofenadin] | 105% | 101% | 15.7 min | 97% | 99.3% | 91.4% | 101%
O=C(Nc1ccc(Cl)cc1)Nc1ccc(Cl)c(Cl)c1 [Triclocarban] | 113% | 112% | 22 min | 57.9% | 118% | 91.3% | 64.3%
CCOP(=O)(OCC)OC(=CCl)c1ccc(Cl)cc1Cl [Chlorfenvinphos] | 112% | 104% | 20.9 min | 85.1% | 86.4% | 94.3% | 86.9%
CC(=O)N(C)N(C(=O)C(=O)N(C)C)c1ccccc1 [AMDOPH] | 114% | 114% | 13.9 min | 94.8% | 93.2% | 93.2% | 90.8%
CN(C)S(=O)(=O)Nc1ccccc1 [DMSA (=N-N-Dimethylaminosulfanilid)] | 100% | 95.6% | 15.9 min | 100% | 95.5% | 89.9% | 136%
CS(=O)(=O)c1ccc(C(=O)[O-])c(Cl)c1 [Sulcotrion-CMBA] | 101% | 109% | 12.1 min | 96.8% | 38% | 92.6% | 95.3%
O=C([O-])COCC[NH+]1CCN(C(c2ccccc2)c2ccc(Cl)cc2)CC1 (configuration not stated) [Cetirizin] | 107% | 100% | 17.4 min | 97.8% | 96.3% | 95.8% | 92.2%
CCN(CC)C(=O)Nc1ccc(OCC(O)C[NH2+]C(C)(C)C)c(C(C)=O)c1 (configuration not stated) [Celiprolol] | 103% | 103% | 13 min | 86.4% | 84.3% | 90.1% | 84.6%
NC1=[NH+]CCN1Cc1ccc(Cl)nc1 [Imidacloprid-desnitro] | 107% | 103% | 8.99 min | 113% | 110% | 104% | 106%
CC(C)Nc1nc(O)nc(NC(C)C)n1 [Propazine-2-hydroxy I] | 104% | 113% | 12.7 min | 103% | 96.9% | 94.2% | 88%
C[NH+](C)CCC=C1c2ccccc2COc2ccc(CC(=O)[O-])cc21 [Olopatadine] | 100% | 102% | 14.9 min | 82.8% | 86.5% | 91.2% | 84.9%
CC(C)Nc1nc(N)nc(O)n1 [Atrazin-desethyl-2-hydroxy] | 107% | 93.7% | 7.67 min | 76.8% | 74.2% | 71.2% | 92.3%
O=C1Nc2ccc(Cl)cc2C(c2ccccc2)=NC1O (configuration not stated) [Oxazepam] | 104% | 98.7% | 18.4 min | 99.5% | 98.7% | 91.9% | 93.9%
CS(=O)(=O)c1ccc(C(=O)[C-]2C(=O)CCCC2=O)c([N+](=O)[O-])c1 [Mesotrion] | 103% | 103% | 16 min |  | 96.5% | 94.6% | 80.1%
COc1nc(NC(C)C)nc(NC(C)C)n1 [Prometon F] | 104% | 106% | 15.8 min | 88.1% | 95.5% | 91.6% | 92.7%
COc1nn(CSP(=S)(OC)OC)c(=O)s1 [Methidathion] | 108% | 106% | 18.8 min | 102% | 97.9% | 96.5% | 88.2%
CON=C(C(=O)[O-])c1ccccc1COc1ccccc1C [Kresoxim-methyl-acid] | 97.4% | 134% | 20.1 min | 85.5% | 71.8% | 81.5% | 89.8%
CC1(C(=O)[O-])CCC2(C)CCC3(C)C(=CC(=O)C4C5(C)CCC(O)C(C)(C)C5CCC43C)C2C1 (stereo not drawn) [18-beta-Glycyrrhetinic-acid] | 88.9% | 27.7% | 24.5 min | 90.6% | 103% | 84.8% | 90.8%
CCNc1nc(NCC)nc(OC)n1 [Simeton] | 101% | 102% | 13 min | 77.1% | 86% | 85.7% | 88.7%
O=C([O-])C(c1ccccc1)C1CCCC[NH2+]1 (configuration not stated) [Ritalinic-acid] | 110% | 104% | 12.3 min | 104% | 77.4% | 88.9% | 79.8%
CC(C)Oc1cccc(NC(=O)c2ccccc2C(F)(F)F)c1 [Flutolanil] | 94% | 103% | 19.5 min | 104% | 104% | 95.7% | 98%
